Results from patent US11154563B2, “Immunoproteasome inhibitors” (Principia Biopharma Inc., priority 2017, dated 2021).

Assays:
[1] = target: constitutive proteasome β5c unit (Homo sapiens, UniProt P20618+P28074); assay: Caliper-based proteasome enzymatic activity assay, β5c; format: biochemical; details: human recombinant constitutive proteasome 0.3 nM, FAM-peptide substrate 1 μM, 3 h at rt; read-out: β5c subunit IC50
Procedure: (§1) A Caliper-based proteasome assay (Caliper Life Sciences, Hopkinton, Mass.) was used to measure inhibition of the immunoproteasome LMP7/B5i subunit, the immunoproteasome LPM2/β1i subunit, and the constitutive proteasome β5c unit for a compound of Formula (I). For LMP7 and β5c, serial dilutions of test compounds were incubated with either human recombinant immunoprotcasome or constitutive proteasome (0.3 nM enzyme) and a carboxyfluorescein (FAM)-labeled peptide substrate FAM-TYETFKSIMKKSPF-NH2 (1 μM) at it for 3 h. The reaction was then terminated with a buffer containing the known proteasome inhibitor carfilzomib at a concentration of 5 uM. For LMP2, serial dilutions of test compounds were incubated with human recombinant immunoproteasome proteasome (0.3 nM enzyme) and a carboxyfluorescein (FAM)-labeled peptide substrate FAM-[…]-NH2 (1 μM) at rt for 2 h. The reaction was then terminated with a buffer containing the known proteasome inhibitor ixazomib at a concentration of 6.7 uM. The reaction buffer was 20 mM Hepes pH 7.4, 0.01% bovine serum albumin, 0.015% SDS, 0.5 mM EDTA, 1%0/DMSO. The peptide cleavage reaction product was quantified on a Caliper LabChip 3000. Percent inhibition was calculated for each compound dilution and the concentration that produced 50% inhibition was calculated. This value is presented as the IC50.

[2] = target: immunoproteasome LMP7/B5i subunit (Homo sapiens, UniProt P20618+P28062); assay: Caliper-based proteasome enzymatic activity assay, LMP7; format: biochemical; details: human recombinant immunoproteasome 0.3 nM, FAM-peptide substrate 1 μM, 3 h at rt
Procedure: as §1

Row | IC50 [1] [nM] | IC50 [2] [nM] | Compound
1 | 217 | 2.1 | CC(C)(C=C(C#N)C(=O)N1CCCC[C@@H]1COC(=O)N[C@@H](Cc1coc2ccccc12)B(O)O)N1CCC(F)(F)CC1 [Example 66, ((R)-2-(benzofuran-3-yl)-1-(((((R)-1-(2-cyano-4-(4,4-difluoropiperidin-1-yl)-4-methylpent-2-enoyl)piperidin-2-yl)methoxy)carbonyl)amino)ethyl)boronic acid]
2 | 447 | 2.5 | CC(C)(C=C(C#N)C(=O)N1CCCCC[C@H]1COC(=O)N[C@@H](Cc1coc2ccccc12)B(O)O)N1CCC(F)(F)C1 [Example 68, ((R)-2-(benzofuran-3-yl)-1-(((((S)-1-(2-cyano-4-(3,3-difluoropyrrolidin-1-yl)-4-methylpent-2-enoyl)azepan-2-yl)methoxy)carbonyl)amino)ethyl)boronic acid]
3 | 225 | 2.5 | CC(C)(C=C(C#N)C(=O)N1CCCCC[C@@H]1COC(=O)N[C@@H](Cc1coc2ccccc12)B(O)O)N1CCC(F)(F)C1 [Example 72, ((R)-2-(benzofuran-3-yl)-1-(((((R)-1-(2-cyano-4-(3,3-difluoropyrrolidin-1-yl)-4-methylpent-2-enoyl)azepan-2-yl)methoxy)carbonyl)amino)ethyl)boronic acid]
4 | 1020 | 1.1 | Cc1ccc(C[C@H](NC(=O)OC[C@H]2[C@H]3C[C@H]3CN2C(=O)C(C#N)=CC(C)(C)N2CCOCC2)B(O)O)cc1 [Example 75]
5 | 677 | 1.2 | Cc1ccc(C[C@H](NC(=O)OC[C@H]2[C@H]3C[C@H]3CN2C(=O)C(C#N)=CC(C)(C)C)B(O)O)cc1 [Example 76]
6 | 1010 | 13 | CN(C)C/C=C/C(=O)N1C[C@@H]2C[C@@H]2[C@@H]1COC(=O)N[C@@H](Cc1coc2ccccc12)B(O)O [Example 87, ((R)-2-(benzofuran-3-yl)-1-(((((1S,2R,5R)-3-((E)-4-(dimethylamino)but-2-enoyl)-3-azabicyclo[3.1.0]hexan-2-yl)methoxy)carbonyl)amino)ethyl)boronic acid]
7 | 263 | 7.1 | CC#CC(=O)N1C[C@@H]2C[C@@H]2[C@@H]1COC(=O)N[C@@H](Cc1coc2ccccc12)B(O)O [Example 88, ((R)-2-(benzofuran-3-yl)-1-(((((1S,2R,5R)-3-(but-2-ynoyl)-3-azabicyclo[3.1.0]hexan-2-yl)methoxy)carbonyl)amino)ethyl)boronic acid]
8 | 1850 | 73 | C=CC(=O)N1C[C@H](F)C[C@@H]1COC(=O)N[C@@H](Cc1ccccc1)B(O)O [Example 89, ((R)-1-(((((2R,4R)-1-acryloyl-4-fluoropyrrolidin-2-yl)methoxy)carbonyl)amino)-2-phenylethyl)boronic acid]
9 | 320 | 2.5 | C=CC(=O)N1CC(F)(F)C[C@@H]1COC(=O)N[C@@H](Cc1coc2ccccc12)B(O)O [Example 91, ((R)-1-(((((R)-1-acryloyl-4,4-difluoropyrrolidin-2-yl)methoxy)carbonyl)amino)-2-(benzofuran-3-yl)ethyl)boronic acid]
10 | 2240 | 1.9 | Cc1ccc(C[C@H](NC(=O)OC[C@H]2[C@H]3C[C@H]3CN2C(=O)C(C#N)=CC2(C)CCOCC2)B(O)O)cc1 [Example 92, ((R)-1-(((((1S,2R,5R)-3-(2-cyano-3-(4-methyltetrahydro-2H-pyran-4-yl)acryloyl)-3-azabicyclo[3.1.]hexan-2-yl)methoxy)carbonyl)amino)-2-(p-tolyl)ethyl)boronic acid]
11 | 165 | 3 | C=CC(=O)N1CCOC[C@@H]1COC(=O)N[C@@H](Cc1coc2ccccc12)B(O)O [Example 93, ((R)-1-(((((R)-4-acryloylmorpholin-3-yl)methoxy)carbonyl)amino)-2-(benzofuran-3-yl)ethyl)boronic acid]
12 | 3390 | 37 | C=CC(=O)N1C[C@@H]2C[C@@H]2[C@@H]1COC(=O)N[C@@H](Cc1ccc(C)cc1)B(O)O [Example 95, ((R)-1-(((((1S,2R,5R)-3-acryloyl-3-azabicyclo[3.1.0]hexan-2-yl)methoxy)carbonyl)amino)-2-(p-tolyl)ethyl)boronic acid]

Second part, the compound before the results:

Row | Compound | IC50 [1] [nM] | IC50 [2] [nM]
13 | CC(C)(C)C=C(C#N)C(=O)N1CCOC[C@@H]1COC(=O)N[C@@H](Cc1ccccc1)B(O)O [Example 69, ((R)-1-(((((R)-4-(2-cyano-4,4-dimethylpent-2-enoyl)morpholin-3-yl)methoxy)carbonyl)amino)-2-phenylethyl)boronic acid] | 670 | 3.2
14 | COc1ccc(C[C@H](NC(=O)OC[C@H]2CCCCN2C(=O)C(C#N)=CC(C)(C)C)B(O)O)cc1 [Example 70, ((R)-1-(((((R)-1-(2-cyano-4,4-dimethylpent-2-enoyl)piperidin-2-yl)methoxy)carbonyl)amino)-2-(4-methoxyphenyl)ethyl)boronic acid] | 1840 | 6.5
15 | CC(C)(C=C(C#N)C(=O)N1CCC[C@]1(C)COC(=O)N[C@@H](Cc1coc2ccccc12)B(O)O)N1CCOCC1 [Example 71, ((R)-2-(benzofuran-3-1)-1-(((((R)-1-(2-cyano-4-methyl-4-morpholinopent-2-enoyl)-2-methylpyrrolidin-2-yl)methoxy)carbonyl)amino)ethyl)boronic acid] | 1660 | 4.5
16 | Cc1ccc(C[C@H](NC(=O)OC[C@H]2COCCN2C(=O)C(C#N)=CC(C)(C)C)B(O)O)cc1 [Example 73, ((R)-1-(((((R)-4-(2-cyano-4,4-dimethylpent-2-enoyl)morpholin-3-yl)methoxy)carbonyl)amino)-2-(p-tolyl)ethyl)boronic acid] | 288 | 2.7
17 | COc1cccc(C[C@H](NC(=O)OC[C@H]2CCCCN2C(=O)C(C#N)=CC(C)(C)C)B(O)O)c1 [Example 77, ((R)-1-(((((R)-1-(2-cyano-4,4-dimethylpent-2-enoyl)piperidin-2-yl)methoxy)carbonyl)amino)-2-(3-methoxyphenyl)ethyl)boronic acid] | > 5000 | 13
18 | COc1ccc(C[C@H](NC(=O)OC[C@H]2CCCCN2C(=O)C(C#N)=CC(C)(C)N2CCC(F)(F)C2)B(O)O)cc1 [Example 78, ((R)-1-(((((R)-1-(2-cyano-4-(3,3-difluoropyrrolidin-1-yl)-4-methylpent-2-enoyl)piperidin-2-yl)methoxy)carbonyl)amino)-2-(4-methoxyphenyl)ethyl)boronic acid] | 1270 | 4.8
19 | CC(C)(C=C(C#N)C(=O)N1CCCC[C@@H]1COC(=O)N[C@@H](Cc1ccc(Cl)cc1)B(O)O)N1CCC(F)(F)C1 [Example 79, ((R)-2-(4-chlorophenyl)-1-(((((R)-1-(2-cyano-4-(3,3-difluoropyrrolidin-1-yl)-4-methylpent-2-enoyl)piperidin-2-yl)methoxy)carbonyl)amino)ethyl)boronic acid] | 578 | 2
20 | CN(CC(F)F)C(C)(C)C=C(C#N)C(=O)N1CCCC[C@@H]1COC(=O)N[C@@H](Cc1ccccc1)B(O)O [Example 80, ((R)-1-(((((R)-1-(2-cyano-4-((2,2-difluoroethyl)(methyl)amino)-4-methylpent-2-enoyl)piperidin-2-yl)methoxy)carbonyl)amino)-2-phenylethyl)boronic acid] | 1510 | 2
21 | Cc1ccc(C[C@H](NC(=O)OC[C@@H]2CCCCCN2C(=O)C(C#N)=CC(C)(C)N2CCC(F)(F)C2)B(O)O)cc1 [Example 81, ((R)-1-(((((S)-1-(2-cyano-4-(3,3-difluoropyrrolidin-1-yl)-4-methylpent-2-enoyl)azepan-2-yl)methoxy)carbonyl)amino)-2-(p-tolyl)ethyl)boronic acid] | 3840 | 4.4
22 | Cc1ccc(C[C@H](NC(=O)OC[C@H]2CCCCCN2C(=O)C(C#N)=CC(C)(C)N2CCC(F)(F)C2)B(O)O)cc1 [Example 84, ((R)-1-(((((R)-1-(2-cyano-4-(3,3-difluoropyrrolidin-1-yl)-4-methylpent-2-enoyl)azepan-2-yl)methoxy)carbonyl)amino)-2-(p-tolyl)ethyl)boronic acid] | 445 | 2.9
23 | CC(C)(C=C(C#N)C(=O)N1CCOC[C@@H]1COC(=O)N[C@@H](Cc1ccccc1)B(O)O)N1CCC(F)(F)C1 [Example 94, ((R)-1-(((((R)-4-(2-cyano-4-(3,3-difluoropyrrolidin-1-yl)-4-methylpent-2-enoyl)morpholin-3-yl)methoxy)carbonyl)amino)-2-phenylethyl)boronic acid] | 1760 | 2
24 | COc1cccc(C[C@H](NC(=O)OC[C@H]2CCCCN2C(=O)C(C#N)=CC(C)(C)N2CCC(F)(F)C2)B(O)O)c1 [Example 96] | > 5000 | 2.7
25 | CN(CC(F)(F)F)C(C)(C)C=C(C#N)C(=O)N1CCCC[C@@H]1COC(=O)N[C@@H](Cc1ccccc1)B(O)O [Example 97, ((R)-1-(((((R)-1-(2-cyano-4-methyl-4-(methyl(2,2,2-trifluoroethyl)amino)pent-2-enoyl)piperidin-2-yl)methoxy)carbonyl)amino)-2-phenylethyl)boronic acid] | 3970 | 5
